Assay [1] has as its system LPS-stimulated mouse macrophage RAW264.7 cells (小鼠巨噬细胞RAW264.7细胞). The conditions noted are these: LPS-stimulated RAW264.7; earlier study of the applicant's group; read-out: IC50 (inhibition of NO production); cited from earlier work.
Assay [2] relates to LPS-stimulated mouse macrophage RAW264.7 cells, NO production (小鼠巨噬细胞RAW264.7细胞, 一氧化氮(NO)生成). Briefly: Griess assay of NO production in LPS-stimulated RAW264.7 cells. The format is cell-based.
Assay [3] has as its target MAFF protein (MAFF蛋白) (Homo sapiens, UniProt Q9ULX9). Kind of assay: Microscale thermophoresis (MST). In kind it is binding. In general terms: In MST a laser heats a spot of the sample, and binding alters the fluorescence response.
Assay [4] deals with T1, MAFF protein (MAFF蛋白) (Mus musculus, UniProt O54791).
T1 construct: endogenous in cells; host or cells: RAW264.7
T1 sequence (O54791 whole entry): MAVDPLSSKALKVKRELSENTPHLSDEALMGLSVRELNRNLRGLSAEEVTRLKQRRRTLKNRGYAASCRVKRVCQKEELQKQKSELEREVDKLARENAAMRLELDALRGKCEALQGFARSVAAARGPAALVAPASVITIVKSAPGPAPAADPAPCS
Briefly: CETSA in RAW264.7 cells. In kind it is cell-based. As to conditions: 40 μM, 4 h; 64-72 ℃.

The next assay has as its target T2, MAFF (Mus musculus, UniProt O54791).
T2 construct: endogenous in cells; host or cells: RAW264.7
Briefly: DARTS in RAW264.7 lysate. The format is binding. As to conditions: 10, 20 and 40 μM; Pronase 1:1000, 37 ℃ 15 min.

The term IC50 denotes the concentration that inhibits the measured activity by half. The Kd is the constant that tells how readily two partners part at equilibrium.

T2 sequence (O54791 whole entry): as above
Sequence of MAFF protein (MAFF蛋白) (Homo sapiens, UniProt Q9ULX9) (Q9ULX9 whole entry, species assumed): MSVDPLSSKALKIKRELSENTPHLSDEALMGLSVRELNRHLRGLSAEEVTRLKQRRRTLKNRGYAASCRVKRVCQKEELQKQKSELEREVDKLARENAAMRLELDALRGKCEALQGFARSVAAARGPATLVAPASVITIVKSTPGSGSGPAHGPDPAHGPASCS

On to `C=C1CC[C@H]2[C@@H](/C=C(\C)C(=O)[C@@]3(OC(C)=O)C[C@H](C)[C@H](OC(=O)/C=C/c4ccccc4)[C@@H]3[C@H]1O)C2(C)C` [2S,3S,4S,5R,9S,11R,15R)-15-acetoxy-3-cinnamoyloxy-5-hydroxy-14-oxolathyra-6(17),12E-diene], for which, in assay [1], the IC50 was 3000 ± 1100 nM.
With `C=C1CC[C@H]2[C@@H](/C=C(\C)C(=O)[C@@]3(O)C[C@H](C)[C@H](O)[C@@H]3[C@H]1O)C2(C)C` [Lathyrol], the IC50 in assay [2] (Mus musculus, RAW264.7, read-out: IC50 (inhibition of NO production)) is 11.1 ± 1.14 µM. In assay [2] (RAW264.7, compound 3 h, then LPS 1 μg/mL 24 h), the “inhibition of LPS-stimulated NO production (in words)” value is given as “良好的抑制作用”. At MAFF protein (MAFF蛋白) [3], the Kd is 20.9 ± 2.34 µM. At MAFF protein (MAFF蛋白) [4], the “thermal stability of MAFF protein” value is recorded as “提高了MAFF蛋白的热稳定性”. Moreover, the “degradation of MAFF by Pronase” value on MAFF is given as “降解程度显著降低”.
